Reference: patent publication US20130040935A1, “CYCLIC KETO-ENOLS FOR THERAPY” (BAYER INTELLECTUAL PROPERTY GMBH, priority 2010, published 2013)
pIC50: −log10 of the molar value. Like-named read-outs stand apart in the source and are kept apart here.

Key:
[1] = target: T1, human ACC1 (acetyl-coenzyme A carboxylase alpha transcript variant 1) (Homo sapiens, UniProt Q13085); experiment: Human ACC1 enzyme assay, Assay B1 (ADP-Glo); type: biochemical
T1 construct: FLAG (C); made in house; host or cells: baculovirus-infected insect cells (Hi5)

[2] = test system: malonyl-CoA in a tumour (human MCF-7 breast cancer cells); experiment: Mode-of-action experiment: intratumour malonyl-CoA in MCF-7 tumours after oral administration; type: in vivo, female nude mice (NMRI-nude (nu/nu)); conditions: Mus musculus, MCF7, po; after 7 h, 10 mg/kg, vs Vehicle
Description: Mode-of-Action Experiment
Prior to the determination of the activity in the MCF-7 model, some of the test substances were examined in a “mode of action” experiment. The principle of this experiment is that short-term application of a test substance capable of inhibiting ACC1 and/or ACC2 in a living organism after oral administration reduces malonyl-CoA in a tumour. To this end, in the experiment 2 million human MCF-7 breast cancer cells were injected subcutaneously into female nude mice (NMRI-nude (nu/nu) mice, Taconic M&B A/S, 1 day beforehand administration of a pellet for the release of oestrogen over a period of at least 60 days). Once the tumour extended to an area of about 60-70 mm^2, the test substance was administered orally over a period of 1-3 days, and at defined points in time the intratumour content of malonyl-CoA was then determined and compared to the vehicle control. The method is described in Anal Chem 2008 Aug. 1; 80(15):5736-42. Epub 2008 Jul. 9.).

MCF7 = experiment: Cell proliferation assay (CellTiter-Glo, 96 h), MCF7; type: cell-based; conditions: Homo sapiens, MCF7; Table 7; 96-hour incubation
In short: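 Seeding: 2000-5000 cells/well; overnight, 37° C. Separate t=0 plate read. Compound diluted in growth medium, 96 h, 37° C. Readout: CellTiter-Glo luminescence, t=0 subtracted; % growth inhibition vs control.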

MDA-MB-436 = experiment: Cell proliferation assay (CellTiter-Glo, 96 h), MDA-MB-436; type: cell-based; conditions: Homo sapiens, MDA-MB-436; 96-hour incubation
Description: (§1) In accordance with the invention, the substances were tested in cell-based assays for the ability of the substances of inhibiting tumour cell proliferation after a 96-hour incubation with the substance. Cell viability was tested using the CellTiter-Glo® luminescent cell viability assay (Promega). The cells were sown at a density of 2000-5000 cells/well (depending on the cell line) in 100 μl growth medium on 96-well microtitre plates. For each cell line examined, cells were sown on a separate plate to determine the luminescence at t=0 hours and t=96 hours. After overnight incubation at 37° C., the luminescence values for the t=0 samples were determined. The dose plates for the t=96 hours points in time were treated with substances diluted with growth medium. The cells were then incubated at 37° C. for 96 hours, and the luminescence values for the t=96 hours sample were then determined. For data analysis, the t=0 values were subtracted from the t=96 hour values for treated and untreated samples. The differences in luminescence in percent between substance-treated samples and control values were used to determine the growth inhibition in percent.
(§2) The substances were tested in the following cell lines which represent the stated indications in an exemplary manner: […]

MDA-MB-468 = experiment: Cell proliferation assay (CellTiter-Glo, 96 h), MDA-MB-468; type: cell-based; conditions: Homo sapiens, MDA-MB-468; 96-hour incubation
Description: as §1, §2

HCC-1937 = experiment: Cell proliferation assay (CellTiter-Glo, 96 h), HCC-1937; type: cell-based; conditions: Homo sapiens, HCC1937; 96-hour incubation
Description: as §1, §2

Miapaca = experiment: Cell proliferation assay (CellTiter-Glo, 96 h), Miapaca; type: cell-based; conditions: Homo sapiens, MIA PaCa-2; 96-hour incubation
Description: as §1, §2

A431 = experiment: Cell proliferation assay (CellTiter-Glo, 96 h), A431; type: cell-based; conditions: Homo sapiens, A-431; 96-hour incubation
Description: as §1, §2

[3] = target: human ACC2 (acetyl-coenzyme A carboxylase 2) (Homo sapiens, UniProt O00763); experiment: Human ACC2 enzyme assay, Assay B2 (ADP-Glo);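 note: human ACC2 activity read as ADP product, detected by luciferase glow luminescence after residual ATP removal, enzyme near 2 ng/µl in linear range, detection steps at 22 °C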
MDA-MB-435 = experiment: Cell proliferation assay (CellTiter-Glo, 96 h), MDA-MB-435; type: cell-based; conditions: Homo sapiens, 96-hour incubation
Description: as §1, §2

786 O = experiment: Cell proliferation assay (CellTiter-Glo, 96 h), 786 O; type: cell-based; conditions: Homo sapiens, 786-0; 96-hour incubation
Description: as §1, §2

PLC/PRF5 = experiment: Cell proliferation assay (CellTiter-Glo, 96 h), PLC/PRF5; type: cell-based; conditions: Homo sapiens, PLC-PRF-5; 96-hour incubation
Description: as §1, §2

NCI-H2135 = experiment: Cell proliferation assay (CellTiter-Glo, 96 h), NCI-H2135; type: cell-based; conditions: 96-hour incubation; read-out: NCLH 2135 IC50
Description: as §1, §2

DLD1 = experiment: Cell proliferation assay (CellTiter-Glo, 96 h), DLD1; type: cell-based; conditions: Homo sapiens, DLD-1; 96-hour incubation
Description: as §1, §2

PC3 = experiment: Cell proliferation assay (CellTiter-Glo, 96 h), PC3; type: cell-based; conditions: Homo sapiens, PC-3; 96-hour incubation
Description: as §1, §2

Du145 = experiment: Cell proliferation assay (CellTiter-Glo, 96 h), Du145; type: cell-based; conditions: Homo sapiens, DU-145; 96-hour incubation
Description: as §1, §2

ECC1 = experiment: Cell proliferation assay (CellTiter-Glo, 96 h), ECC1; type: cell-based; conditions: Homo sapiens, ECC-1; 96-hour incubation
Description: as §1, §2

KM12 = experiment: Cell proliferation assay (CellTiter-Glo, 96 h), KM12; type: cell-based; conditions: Homo sapiens, 96-hour incubation
Description: as §1, §2

HEC1A = experiment: Cell proliferation assay (CellTiter-Glo, 96 h), HEC1A; type: cell-based; conditions: Homo sapiens, HEC-1-A; 96-hour incubation
Description: as §1, §2

[4] = In-vitro dissolution of the pharmaceutical formulation (USP apparatus 2, paddle method); type: physicochemical; conditions: pH 1 and pH 6.8 (reason for adding SDS)
Description: c) In-Vitro Dissolution of the Pharmaceutical Formulation […] The release test was in each case carried out in 900 ml of various media at 37° C. and with a stirrer speed of 75 rotations per minute (FIG. 2). Each determination was carried out in three replications. The content was determined by HPLC.

recombinant human ACC1 = recombinant human ACC1 (Homo sapiens, UniProt Q13085); experiment: Human ACC1 enzyme assay, Assay A1 (HTRF ADP immunoassay);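 note: ADP generated by the enzyme quantified via competitive time-resolved FRET, read as europium cryptate to d2 energy transfer after 1 h at 22 °C with labelled ADP tracer and anti-ADP antibody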
Description: The inhibitory activity of the substances of this invention with regard to acetyl-CoA carboxylase 1 (ACC1) was measured using the ACC1 assay described in the paragraphs below. The basic principle of the assay is the measurement of adenosine diphosphate (ADP), which is formed as a by-product, by means of an HTRF®-based competitive immunoassay (HTRF=Homogeneous Time Resolved Fluorescence).
Typical concentrations were in the range of 2.5 ng/μl.
The amount of complex between d2-labelled ADP and europium cryptate-labelled anti-ADP antibody was then determined by measuring the resonance energy transfer from the europium cryptate to d2.

[5] = target: acetyl-CoA carboxylase 2 (ACC2) (Homo sapiens, UniProt O00763); experiment: Human ACC2 enzyme assay, Assay A2 (HTRF ADP immunoassay);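 note: ADP generated by ACC2 quantified via competitive time-resolved FRET between europium cryptate anti-ADP antibody and d2-tagged ADP, enzyme kept in linear range near 0.6 ng/µl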
[6] = target: ACCase enzyme extracted from oat seedlings (Avena sativa, UniProt A0ACD5YD93); experiment: Non-human ACCase assay (malachite green phosphate detection); type: biochemical; conditions: comparative compounds, Table V.2; read-out: ACC-non human IC50
Description: The assay was carried out at room temperature in a transparent 384-well microtitre plate. It determined the inorganic phosphate released from the ATP in the ACCase reaction.
The test mixture contained 50 mM Tris-HCl pH 8.3, 50 mM KCl, 2.5 mM MgCl2, 0.5 mM ATP, 0.8 mM dithiothreitol (DTT), 30 mM NaHCO3, 0.1 mM acetyl-CoA, 0.04% bovine serum albumin and 0.4 μg partially purified ACCase enzyme in a final volume of 40 μl. After 45 minutes of incubation, the reaction was stopped with 150 μl of malachite green solution, and the absorption at […] was read after 30 minutes.
The malachite green (MG) solution was prepared by mixing 3 parts of 0.6 mM MG-HCl solution in distilled water with 1 part of 8.5 mM ammonium molybdate in 4 M HCl. The solution was allowed to stand for 30 minutes. After filtration through a 0.45 μm polytetrafluoroethylene (PTFE) filter, 0.1 part of Triton X-100 (1.5%) in distilled water was added.
ACCase enzyme was extracted from oat seedlings 9 days after sowing and partially purified by precipitation with 0-40% ammonium sulphate followed by ion exchange chromatography on Q-Sepharose.

[7] = Assay B1, read-out: ACC 1 (=B1) IC50

SMILES	pIC50 [1, 7]	pIC50 (MCF7)	pIC50 [3]	pIC50 (PC3)	pIC50 (Du145)	pIC50 (ECC1)	pIC50 (KM12)	pIC50 [6]	other results
COCC1CCC2(CC1)NC(=O)C(c1cc(-c3ccc(Cl)cc3)ccc1C)=C2O (stereo not drawn) [1-56, 3-(4′-chloro-4-methylbiphenyl-3-yl)-4-hydroxy-8-(methoxymethyl)-1-azaspiro[4.5]dec-3-en-2-one]	6.69	7.52	6.17	–	–	–	–	–	inhibition in vivo at 10 mg/kg [2]: 84%; pIC50 (MDA-MB-436): 7.08; pIC50 (MDA-MB-468): 6.86; pIC50 (HCC-1937): 6.77; pIC50 (Miapaca): 6.50; pIC50 (A431): 6.67
Cc1ccc(-c2ccc(Cl)cc2)cc1C1=C(O)C2(CCCCC2)NC1=O [1-77, 3-(4′-chloro-4-methylbiphenyl-3-yl)-4-hydroxy-1-azaspiro[4.5]dec-3-en-2-one]	–	–	5.59	7.51	7.29	6.59	7.10	–	pIC50 [1]: 6.56; inhibition in vivo at 10 mg/kg [2]: 96%; pIC50 (MDA-MB-435): 6.85; pIC50 (786 O): 6.39; pIC50 (PLC/PRF5): 5.41; pIC50 (NCI-H2135): 7.48; pIC50 (DLD1): 6.06
CO[C@H]1CC[C@]2(CC1)NC(=O)C(c1cc(-c3ccc(Cl)c(F)c3)ccc1C)=C2O [1-118, (5s,8s)-3-(4′-Chloro-3′-fluoro-4-methylbiphenyl-3-yl)-4-hydroxy-8-methoxy-1-azaspiro[4.5]dec-3-en-2-one]	6.99	7.43	5.86	7.60	7.41	6.66	6.56	–	pIC50 (HEC1A): 5.75; solubility in dissolution media [4]: insufficient solubility; pIC50 (recombinant human ACC1): 6.89; pIC50 [5]: 6.16
Cc1ccc(-c2ccc(F)c(F)c2)cc1C1=C(O)[C@]2(CC[C@H](C(F)(F)F)CC2)NC1=O [1-128, (5s,8s)-3-(3′,4′-Difluoro-4-methylbiphenyl-3-yl)-4-hydroxy-8-(trifluoromethyl)-1-azaspiro[4.5]dec-3-en-2-one]	6.80	7.48	5.36	7.70	7.54	6.86	7.13	–	pIC50 (HEC1A): 6.48; pIC50 (recombinant human ACC1): 6.71; pIC50 [5]: 5.56
CCc1cc(-c2ccccc2)cc(Cl)c1C1C(=O)N2CCOCCN2C1=O [V-1]	–	–	–	–	–	–	–	9.30	–
COC1CCC2(CC1)NC(=O)C(c1c(C)cc(-c3ccc(Cl)cc3)cc1C)=C2O (stereo not drawn) [V-2]	–	–	–	–	–	–	–	7.40	–
COC1CCC2(CC1)NC(=O)C(c1c(C)cc(OC(F)(F)F)cc1Cl)=C2O (stereo not drawn) [V-3]	–	–	–	–	–	–	–	8.70	–
